Experimental data as given in patent publication US20030190289A1, “Formulations containing a glucocorticoid drug for the treatment of bronchopulmonary diseases” (priority 2000, published 2003).

Columns and labels:
[1] = Solubility in ethanol and ethanol/HFA mixtures; assay type: physicochemical; conditions: in ethanol and mixtures containing ethanol and HFA134a or ethanol and HFA227
[2] = cited from earlier work; for Rank order of topical activity: comparison between rac-BUD and its two epimers, Clissold et al.
[3] = Pharmacokinetic and metabolic profile / systemic exposure of the epimers; assay type: in vivo; conditions: studies carried out by the applicant
[4] = Chemical and physical stability in solution; assay type: physicochemical; conditions: solution formulations
Protocol: In WO 00/30608 published on Jun.
In the same application, further 22R-BUD solution compositions in HFA 134a or 227 are described whose relevant respirable dose and the respirable fraction have been determined. In these compositions, the concentration of the active ingredient is comprised between 0.06% and 0.14% w/v equivalent to single doses of w 60, 63 and 70 μg, respectively. However, although said formulations give rise to good performances in term of respirable fraction due to the low amount of ethanol, the polarity of the whole solvent system constituted of 7-8% w/w of ethanol and 0.9% w/w of isopropyl myristate or PEG 400 is too low, leading to physical stability problem, i.e. partial precipitation of the active ingredient, after storage under stress conditions.

[5] = HFA propellant containing ethanol and optionally a low volatility component; inhalers with internal surface of stainless steel, anodized aluminum or epoxy phenol resin lining; WO 00/30608; cited from earlier work
[6] = Clissold et al. 1984, Edbäcker et al. 1987; cited from earlier work
[7] = studies in the animals; Clissold et al. 1984, Edbäcker et al. 1987; cited from earlier work

| Compound | Solubility versus corresponding epimer [1] | Rank order of topical activity [2] [R >rac-BUD >22S] | Systemic exposure versus corresponding epimer [3] | Chemical degradation tendency versus corresponding epimer [4] | Stability in solution [5] | Pharmacokinetic and metabolic profile versus (22S) epimer [6] | Potency relative to the corresponding (22S) epimer [7] [times] | Ratio of topical to systemic activity ([2]; compared with other corticosteroids) |
| --- | --- | --- | --- | --- | --- | --- | --- | --- |
| CCC[C@@H]1O[C@@H]2C[C@H]3[C@@H]4CCC5=CC(=O)C=C[C@]5(C)[C@H]4[C@@H](O)C[C@]3(C)[C@]2(C(=O)CO)O1 [Composition 22R-BUD, (22R)-budesonide] | significantly less soluble than its corresponding epimer | 22 | different from that of its corresponding epimer | higher tendency to exhibit chemical degradation than its corresponding epimer | stable in solution | different pharmacokinetic and metabolic profile | 2 to 3 | – |
| CCCC1O[C@@H]2C[C@H]3[C@@H]4CCC5=CC(=O)C=C[C@]5(C)[C@H]4[C@@H](O)C[C@]3(C)[C@]2(C(=O)CO)O1 (mixture of isomers) [rac-BUD, Budesonide] | – | 22 | – | – | – | – | – | high ratio of topical to systemic activity |
| CCCC1OC2CC3C4CCC5=CC(=O)C=CC5(C)C4C(O)CC3(C)C2(C(=O)CO)O1 (stereo not shown) [Composition 22S] | – | 22 | – | – | – | – | – | – |
